Assay results: patent US20090247475A1, “METHODS AND COMPOSITIONS RELATING TO PHARMACOGENETICS OF DIFFERENT GENE VARIANTS IN THE CONTEXT OF IRINOTECAN-BASED THERAPIES” (The Regents of the University of California, priority 2004, published 2009)
Numbering of substitutions follows the chain as printed. Like-named read-outs stand apart in the source and are kept apart here.

Experiments:
[1] = target: T1, SLCO1B1*15 (N130D and V174A) (Homo sapiens, UniProt Q9Y6L6, N130D/V174A); conditions: among the variants examined; cited from earlier work
T1 sequence (Q9Y6L6 1-691 N130D/V174A): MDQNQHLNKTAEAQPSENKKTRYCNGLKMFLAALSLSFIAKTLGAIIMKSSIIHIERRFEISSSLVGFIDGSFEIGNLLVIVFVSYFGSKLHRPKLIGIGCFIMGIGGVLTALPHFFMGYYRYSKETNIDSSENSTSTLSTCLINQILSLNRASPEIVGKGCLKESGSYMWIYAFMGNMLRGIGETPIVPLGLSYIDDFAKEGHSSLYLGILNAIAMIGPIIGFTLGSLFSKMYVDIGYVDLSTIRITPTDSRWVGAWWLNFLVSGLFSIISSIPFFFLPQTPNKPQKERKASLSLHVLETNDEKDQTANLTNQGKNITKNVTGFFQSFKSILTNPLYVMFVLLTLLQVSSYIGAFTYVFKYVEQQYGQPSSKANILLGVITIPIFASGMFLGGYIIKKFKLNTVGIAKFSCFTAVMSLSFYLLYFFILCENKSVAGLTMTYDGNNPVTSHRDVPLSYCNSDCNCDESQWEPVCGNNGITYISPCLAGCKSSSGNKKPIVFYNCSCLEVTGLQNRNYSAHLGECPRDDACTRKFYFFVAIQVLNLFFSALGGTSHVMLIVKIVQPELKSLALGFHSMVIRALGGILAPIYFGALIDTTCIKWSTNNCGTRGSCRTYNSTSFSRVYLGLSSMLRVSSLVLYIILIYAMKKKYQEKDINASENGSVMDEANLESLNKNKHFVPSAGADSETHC

[2] = cited from earlier work
OATP1B1 = target: T2, OATP1B1 (Homo sapiens, UniProt Q9Y6L6); conditions: cited from earlier work
T2 sequence (Q9Y6L6 1-691): T1 sequence (Q9Y6L6 1-691 N130D/V174A) with D130N, A174V

[3] = Irinotecan pharmacokinetics (AUC, noncompartmental analysis) in cancer patients stratified by genotype
Source text: (§1) Sixty-four adults (48 Caucasians, 10 African-Americans, 4 Hispanics, and 2 others) with refractory solid tumors took part in the pharmacogenetic study.
(§2) After visual inspection of the graphical plots of AUC and ratios stratified by genotype, t test analysis was applied to the data showing the possible presence of an inter-genotype difference in irinotecan pharmacokinetics.
(§3) Two SNPs in SLCO1B1 [*1b (388A>G) and *5 (521T>C)] were also genotyped.

[4] = human, in vivo
Source text: as §1, §2, §3

[5] = early single agent trials; fraction of patients; cited from earlier work
[6] = OATP1B1*1a and three common variants

## C[C@]12CC[C@@H]3c4ccc(OS(=O)(=O)O)cc4CC[C@H]3[C@@H]1CCC2=O [estrone-3-sulfate]
[1]
  Transport activity of SLCO1B1*15 variant: decreased transport activities

## CC[C@H](C)C(=O)O[C@H]1C[C@H](O)C=C2C=C[C@H](C)[C@H](CC[C@@H](O)C[C@@H](O)CC(=O)O)[C@H]21 [pravastatin]
[2]; heterozygous carriers of *15B
  Mean pravastatin AUC0-12 higher compared to non-carriers: 93%
[2]; heterozygous carriers of *17
  Mean pravastatin AUC0-12 higher compared to non-carriers: 130%
[2]; subjects with SLCO1B1 -11187GA genotype
  Mean pravastatin AUC0-12 higher compared to reference genotype: 98%
[1]
  Transport activity of SLCO1B1*15 variant: decreased transport activities

## CCc1c2c(nc3ccc(O)cc13)-c1cc3c(c(=O)n1C2)COC(=O)[C@]3(O)CC [SN-38, 7-ethyl-10-hydroxycamptothecin]
OATP1B1; [6]
  Transport by OATP1B1: transport activity for SN-38 was observed
OATP1B1
  Inhibition of SLCO1B1-mediated uptake of [(3)H]estrone-3-sulfate: significant inhibitory effect
[1]
  Transport activity of SLCO1B1*15 variant: decreased transport activities
[3]; 350 mg/m^2 IV irinotecan, SN-38 and SN-38G analysed in 6/6 and 6/7 UGT1A1 genotype patients
  AUC in ABCC2 3972 TT patients compared to CT and CC patients: No significant correlation

## CCc1c2c(nc3ccc(O[C@@H]4O[C@H](C(=O)O)[C@@H](O)[C@H](O)[C@H]4O)cc13)-c1cc3c(c(=O)n1C2)COC(=O)[C@]3(O)CC [SN-38G, 10O-glucuronyl-SN-38]
[4]
  Effect of SLCO1B1*5 variant on patient exposure (AUC): not affected
OATP1B1
  Transport by OATP1B1: not transported

## CCc1c2c(nc3ccc(OC(=O)N4CCC(N5CCCCC5)CC4)cc13)-c1cc3c(c(=O)n1C2)COC(=O)[C@]3(O)CC [irinotecan, Irinotecan]
[4]
  Effect of SLCO1B1*5 variant on patient exposure (AUC): increase in irinotecan AUC
[5]
  Frequency of grade 3-4 diarrhea: about one third
OATP1B1; [6]
  Transport by OATP1B1: not transported
[3]; human, in vivo
  Effect of SLCO1B1*1b allele on plasma disposition: no effect
